Test results reported in publication PMC10590419, “Structural and mechanistic insights into the inhibition of respiratory syncytial virus polymerase by a non-nucleoside inhibitor” (Communications Biology, 2023).

Target: T1, Human DNA polymerase gamma (Homo sapiens, UniProt P54098)
T1 construct: purchased Abcam
T1 sequence (P54098 1-1239): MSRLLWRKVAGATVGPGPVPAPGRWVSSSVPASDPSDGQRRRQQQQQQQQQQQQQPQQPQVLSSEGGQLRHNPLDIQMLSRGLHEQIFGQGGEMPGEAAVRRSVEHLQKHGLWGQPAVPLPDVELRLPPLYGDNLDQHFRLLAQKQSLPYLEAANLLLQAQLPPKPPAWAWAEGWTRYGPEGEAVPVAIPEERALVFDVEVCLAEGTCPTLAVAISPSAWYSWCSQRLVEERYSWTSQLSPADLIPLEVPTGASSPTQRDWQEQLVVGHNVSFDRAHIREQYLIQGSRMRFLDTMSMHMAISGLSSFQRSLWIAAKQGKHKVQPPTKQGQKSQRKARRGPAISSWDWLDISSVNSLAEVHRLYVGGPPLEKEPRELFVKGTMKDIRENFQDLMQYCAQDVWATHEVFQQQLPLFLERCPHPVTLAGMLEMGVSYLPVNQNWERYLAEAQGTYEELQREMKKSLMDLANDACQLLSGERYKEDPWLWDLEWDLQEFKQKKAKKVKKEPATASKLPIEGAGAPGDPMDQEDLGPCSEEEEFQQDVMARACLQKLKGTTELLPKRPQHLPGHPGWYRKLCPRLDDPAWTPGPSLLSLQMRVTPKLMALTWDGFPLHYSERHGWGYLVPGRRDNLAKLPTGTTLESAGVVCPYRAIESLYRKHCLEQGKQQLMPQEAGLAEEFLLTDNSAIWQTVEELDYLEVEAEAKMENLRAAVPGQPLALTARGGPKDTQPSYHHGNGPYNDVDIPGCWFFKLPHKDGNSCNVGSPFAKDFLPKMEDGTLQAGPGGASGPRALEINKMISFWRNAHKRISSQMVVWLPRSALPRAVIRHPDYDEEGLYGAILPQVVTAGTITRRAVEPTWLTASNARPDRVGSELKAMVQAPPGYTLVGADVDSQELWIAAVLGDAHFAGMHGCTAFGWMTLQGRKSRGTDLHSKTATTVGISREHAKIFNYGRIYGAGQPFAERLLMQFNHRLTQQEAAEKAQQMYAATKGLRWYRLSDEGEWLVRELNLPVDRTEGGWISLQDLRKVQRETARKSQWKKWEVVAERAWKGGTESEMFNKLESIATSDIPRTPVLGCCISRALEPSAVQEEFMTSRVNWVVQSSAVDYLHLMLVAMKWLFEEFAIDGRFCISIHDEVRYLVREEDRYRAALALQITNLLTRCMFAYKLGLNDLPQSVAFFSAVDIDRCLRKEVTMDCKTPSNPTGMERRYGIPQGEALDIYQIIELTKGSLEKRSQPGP
Assay: DNA-dependent DNA polymerase activity
Format: biochemical
Conditions: DNA Pol γ
Procedure: to the method described previously 1. A 25 nM solution of RSV MTase-CTD protein or RSV L+P complex was incubated with 0.7 µM or 1.8 µM purified synthetic RNA 5’-Gppp […]
[…] (RSV9) for the MTase-CTD or L+P complex, respectively; 2 µM or 0.17 µM S-adenosyl methionine (SAM) for the MTase-CTD or L–P complex, respectively; and 0.1 µM or 0.8 µM 3H-SAM (Perkin Elmer) for the MTase-CTD or L–P complex, respectively; in 50 mM Tris-HCl pH 8.0. Compounds, previously dissolved in DMSO were added at a final concentration of 50 µM or 200 µM. After 3 h incubation at 30°C, reactions were quenched by a 20-fold dilution in ice cold water. Samples were transferred to DEAE filtermats (Perkin Elmer) using a Filtermat Harvester (Packard Instruments). The RNA-retaining mats were washed twice with 10 mM ammonium formate pH 8.0, twice with water and once with ethanol. They were then soaked with scintillation fluid (Perkin Elmer), and 3H-methyl transfer to the RNA substrates was determined using a Wallac MicroBeta TriLux Liquid Scintillation Counter.
Cellular polymerase assays
DNA-dependant DNA polymerase (DdDp) activity
Human DNA polymerases alpha (CHIMERx) at 5 U/ml, beta (CHIMERx) at 0.5 U/ml and gamma (Abcam) at 0.1 mg/ml were incubated with the tested inhibitors at specified concentrations, and a reaction mix composed of 62 µg/ml activated calf thymus DNA, dGTP (2 µM), dATP (2 µM), dCTP (2 µM), [ 3H]dTTP (0.05 µCi/µl), 0.1 mg/ml BSA and a buffer composed of Tris-HCl pH 8 (50 mM), MgCl 2 (5 mM), KCl (60 mM), and DTT (4 mM.) in a total volume of 50 µl. After 2 hours incubation at 30°C, reaction was terminated by addition of 60 µl of a chilled stop solution composed of 20% (w/v) TCA with 0.5 mM ATP. […] Radioactivity was measured via liquid scintillation counting (MicroScint-20, 40µl) on a TriLux apparatus. […]
The RNA transcription activity of human mitochondrial RNA polymerase (POLRMT) was measured by the incorporation of radioactively labeled nucleotides by POLRMT into acid-insoluble RNA products as described previously 2. […]

In the case of `COc1cc(C(=O)NC[C@](O)(c2cc(C(C)(C)O)c(F)c(-c3ccc(F)cc3)n2)C(F)(F)F)cc2cc(C)nnc12` [JNJ-8003], the IC50 is reported as greater than 100 µM.
